Laboratory results as given in patent US20260137700A1, “PHARMACEUTICAL COMBINATION OF PRMT5 INHIBITOR AND DNA DAMAGE-INDUCING SUBSTANCE” (SK Biopharmaceuticals Co., Ltd., priority 2022, published 2026).

Key:
[1] = system: symmetric dimethyl arginine (SDMA); test: In vivo target inhibition: SDMA ELISA in tumor samples of the Mia PaCa-2 xenograft mouse model
Description: Quantitative reduction levels of symmetric dimethyl arginine (SDMA) in tumor samples harvested from a subcutaneous xenograft mouse model of Mia PaCa-2 were measured by enzyme-linked immunosorbent assay (ELISA).
Reagents: Bradford solution (catalog no. 500-0006) was purchased from Bio-rad (USA). SDMA antibody (catalog no. 13222s) was purchased from Cell signaling Technology (USA). SmD3 antibody (catalog no. ap12451a) was purchased from Abgent (USA). Secondary antibody (catalog no. ab6721) and TMB substrate (catalog no. ab210902) were purchased from Abcam (UK).
Experimental procedure: Tumor tissue transplanted into mice was extracted, cells were lysed, and quantified with Bradford solution. […] of protein per sample was diluted with carbonate-bicarbonate buffer, dispensed into a 96-well plate, and reacted at room temperature for 2 hours. After washing three times with phosphate-buffered saline (PBST) containing 0.05% Tween-20, 200 μL of PBST containing 5% bovine serum albumin (BSA) (BSA-PBST) was added, and reacted at room temperature for 2 hours. After washing three times with PBST, 100 μL of SDMA antibody and SmD3 antibody were diluted in BSA-PBST, each was dispensed, and reacted overnight at 4° C. After washing three times with PBST on next day, 100 μL of secondary antibody diluted in BSA-PBST was added, and reacted at room temperature for 1 hour. After washing three times with PBST, 100 μL of TMB substrate was added and reacted at room temperature for 10-20 minutes, and 100 μL of 1N sulfuric acid solution was added to terminate the reaction. Then, the degree of SDMA inhibition by the compound was calculated by measuring the absorbance at 450 nm.

[2] = system: CTG-1932, a human non-small cell lung cancer patient-derived cell line; test: Subcutaneous xenograft mouse model of patient-derived CTG-1932 non-small cell lung cancer, tumor growth inhibition; type: in vivo; details: day 9
Description: For in vivo efficacy studies in a subcutaneous xenograft mouse model of CTG-1932, a human non-small cell lung cancer patient-derived cell line, combination therapy of compound-87 as a PRMT5 inhibitor according to one example of the present invention and with paclitaxel as a chemotherapy agent, was performed at Champions Oncology (USA).
To produce a non-small cell lung cancer xenograft model, CTG-1932 tumor stock was grown and harvested from primary mice and then transplanted subcutaneously into the left flank of immunocompromised female mice as a 5×5×5 mm^3 tumor fragment. When the tumor volume reached approximately 150-300 mm^3, the mice were separated into four groups of 10 each. All group consisted of a solvent-treated group (vehicle group), a compound-87 monotherapy group (50 mg/kg, oral administration, 3 days on/4 days off), a paclitaxel monotherapy group (20 mg/kg, intraperitoneal administration once a week), and combination treatment group of compound-87 (50 mg/kg, oral administration, 3 days on/4 days off) and paclitaxel (20 mg/kg, intraperitoneal administration once a week). tumor volume and body weight were measured twice a week.

[3] = system: human pancreatic cancer cells Mia PaCa-2; test: Subcutaneous xenograft mouse model of Mia PaCa-2 pancreatic cancer cells, tumor growth inhibition; type: in vivo; details: day 24
Description: For in vivo efficacy study in a subcutaneous xenograft mouse model of human pancreatic cancer cells Mia PaCa-2, co-administration of compound-87 as a PRMT5 inhibitor according to an example of the present invention and Gemcitabine as an anti-metabolite of a chemotherapeutic agent, was performed. To produce a pancreatic cancer xenograft model, 5 million Mia PaCa-2 cells were injected subcutaneously into the right flank of female nude mice, and tumor growth was monitored.
To evaluate the anticancer effect, mice were divided into six groups when the tumor volume reached approximately 150 mm^3 on average. […] The solvent-treated group (vehicle group) or the compound-87 treatment group was administered orally on a 3-day administration/4-day non-administration schedule, and gemcitabine was administered intraperitoneally twice a week for 24 days (Day 0-Day 23). All mice were euthanized on Day 24, 24 hours after the last administration.

CN1CCC(Oc2ccc3c(c2)OCCN(C[C@H](O)CN2CCc4ccccc4C2)C3=O)CC1 [Compound-87, 4-[(2R)-3-(3,4-dihydro-1H-isoquinolin-2-yl)-2-hydroxy-propyl]-8-[(1-methyl-4-piperidyl)oxy]-2,3-dihydro-1,4-benzoxazepin-5-one]
SDMA amount in tumor samples compared to the vehicle group ([1]; 25 mg/kg Compound-87, 3 days on/4 off for 24 days): 37.4% | SDMA amount in tumor samples compared to the vehicle group ([1]; 50 mg/kg Compound-87, 3 days on/4 off for 24 days): 27.7% | inhibition at 25 mg/kg ([1]; Mus musculus, MIA PaCa-2, 25 mg/kg Compound-87, 3 days on/4 off for 24 days): 62.6% | inhibition at 50 mg/kg ([1]; Mus musculus, MIA PaCa-2, 50 mg/kg Compound-87, 3 days on/4 off for 24 days): 72.3% | tumor growth inhibition compared to the solvent-treated group ([2]; compound-87 50 mg/kg oral single agent, 3 days on/4 off, not significant): 39% | tumor growth inhibition compared to the solvent-treated group ([2]; compound-87 50 mg/kg oral together with paclitaxel 20 mg/kg i.p. once a week): 89% | tumor growth inhibition rate ([3]; compound-87 25 mg/kg combined with gemcitabine 60 mg/kg i.p. twice a week): 67.7% | tumor growth inhibition rate ([3]; compound-87 25 mg/kg monotherapy, oral, 3 days on/4 off): 42.6% | tumor growth inhibition rate ([3]; compound-87 50 mg/kg combined with gemcitabine 60 mg/kg i.p. twice a week): 77.0% | tumor growth inhibition rate ([3]; compound-87 50 mg/kg monotherapy, oral, 3 days on/4 off): 56.0%
